Results reported in article PMC9603010 (ACS Bio & Med Chem Au, 2022).

Tests used:
3CL^pro M165A = 3CL^pro M165A (Severe acute respiratory syndrome coronavirus 2, UniProt P0DTD1, M3428A); type: cell-based, SARS-CoV-2
3CL^pro Q299A = 3CL^pro Q299A (Severe acute respiratory syndrome coronavirus 2, UniProt P0DTD1, Q3562A); type: cell-based, SARS-CoV-2

`C=C1C(=O)O[C@H]2[C@H]1CC/C(C)=C/CC[C@@]1(C)O[C@@H]21` [parthenolide] was tested, and the “inhibition in M165A compared to WT” value (3CL^pro M165A) was “reduced” and the “inhibition in Q299A compared to WT” value (3CL^pro Q299A) was “reduced”.
